According to US20220151985A1, “IMMUNOSTIMULATOR AND FOOD OR BEVERAGE FOR IMMUNOSTIMULATION” (AMINO UP CO., LTD., priority 2019, published 2022):

How the values were obtained:
[1] = system: peritoneal exudate cell (PEC) count; assay: PEC count in mice after intraperitoneal administration; type: in vivo, Slc: ddY mice; settings: intraperitoneal injection of 200 μL of 10 mg/mL, 22 hours after administration, compared with control non-treated mice (FIG. 4(a))
Method: The test sample AU-1833C was dissolved in DMSO so as to be 50 mg/mL and then diluted five-fold with saline (product name: Otsuka normal saline, manufactured by Otsuka Pharmaceutical Co., Ltd.) to prepare a test sample solution of 10 mg/mL (including 20% DMSO). The animals used were Slc: ddY mice (female, 6-week old) and grouped as follows. The mice purchased at the age of 5 weeks were acclimated for 5 days under a condition of free access to water and feed (regular diet (product name: CE-2, manufactured by CLEA Japan, Inc.)). […] The mice after a lapse of 22 hours from administration were sacrificed under isoflurane anesthesia, 5 mL of saline was intraperitoneally injected, the abdominal area was rubbed about 10 times, and then intraperitoneal cells were collected by collecting the saline from the abdominal cavity. Using a portion of the collected saline and a Turk's solution (product name: Turk's solution, manufactured by Wako Pure Chemical Industries, Ltd.), a concentration of PEC (cells/mL), intraperitoneally exudated nucleated cells such as white blood cells, was measured. The measured PEC concentration was multiplied by the amount of saline intraperitoneally injected (5 mL) to calculate a PEC count per mouse (cells/mouse).

[2] = system: TNF-α production of PEC; assay: Amount of induced TNF-α production of PEC from treated mice when treated with LPS; type: in vivo, Slc: ddY mice; settings: PEC collected 22 hours after intraperitoneal administration, LPS 100 ng/mL for 3 hours
Method: The test sample AU-1833C was dissolved in DMSO so as to be 50 mg/mL and then diluted five-fold with saline (product name: Otsuka normal saline, manufactured by Otsuka Pharmaceutical Co., Ltd.) to prepare a test sample solution of 10 mg/mL (including 20% DMSO).
The animals used were Slc: ddY mice (female, 6-week old) and grouped as follows.
The mice purchased at the age of 5 weeks were acclimated for 5 days under a condition of free access to water and feed (regular diet (product name: CE-2, manufactured by CLEA Japan, Inc.)). Body weights of the mice after acclimation at the age of 6 weeks were measured and the mice were grouped based on the measured values so that there was no difference in the body weight among the groups. 200 μL of the test sample solutions or 20% DMSO saline as the non-treated group was respectively administered to the mice by intraperitoneal injection. […] Using a portion of the collected saline and a Turk's solution (product name: Turk's solution, manufactured by Wako Pure Chemical Industries, Ltd.), a concentration of PEC (cells/mL), intraperitoneally exudated nucleated cells such as white blood cells, was measured. The measured PEC concentration was multiplied by the amount of saline intraperitoneally injected (5 mL) to calculate a PEC count per mouse (cells/mouse). […]

[3] = system: mouse-derived macrophage-like cell line (RAW264); assay: TNF-α production-inducing activity in cells; type: cell-based; settings: 24 hours
Method: A TNF-α production-inducing activity in a mouse-derived macrophage-like cell line (RAW264, provided: RIKEN BioResource Research Center) was investigated. Using, as test samples, AU-1833C (synthesized in Example 1), lentinan (product name: Lentinan, manufactured by FUJIFILM Wako Pure Chemical Corporation) and fucoidan (product name: Fucoidan Fucus vesiculosus-derived, manufactured by Sigma-Aldrich Co. LLC), test sample solutions were prepared so that the final concentrations of the test samples were 50, 100, and 200 μg/mL. First, all test samples were dissolved in dimethylsulfoxide (DMSO) so as to have a 1,000-fold concentration of the final concentration, and then 100-fold dilution was carried out with deionized water thereby to prepare test sample solutions having a 10-fold concentration (including 1% DMSO) of the final concentrations. […] A ratio of a TNF-α concentration in each test sample group relative to a TNF-α concentration in the non-treated group was calculated from the measured TNF-α concentrations and defined as the TNF-α production-inducing activity.

## O=C1OCCCCCCOC(=O)c2ccccc2C(=O)OCCCCCCOC(=O)c2ccccc21 [AU-1833C, 7,8,9,10,11,12,19,20,21,22,23,24-dodecahydro-dibenzo[1,6,13,18]-tetraoxacyclooctadecine-2,5,14,17-tetrone]
[1]
  PEC counts: significantly higher PEC counts
[2]; compared with control non-treated mice (FIG. 4(b))
  TNF-α production amount per cell in PEC: significantly higher TNF-α production amount per cell in PEC
[2]; compared with control non-treated mice (FIG. 4(c))
  PEC-derived TNF-α production amount per mouse: significantly higher PEC-derived TNF-α production amount per mouse
[3]; RAW264 cells, 50, 100 and 200 μg/mL, ELISA, compared with control non-treated group (FIG. 3)
  TNF-α production-inducing activity (ratio of TNF-α concentration relative to non-treated group): significantly higher than that of the control non-treated group
[3]; RAW264 cells, each of 50, 100 and 200 μg/mL, ELISA (FIG. 3)
  TNF-α production-inducing activity compared with lentinan and fucoidan at the same concentration: significantly higher than those of lentinan and fucoidan at the same concentration
